# Test results as given in patent publication US20140330261A1, “CATHETER FOR PERFORMING PHOTODYNAMIC ABLATION OF CARDIAC MUSCLE TISSUE VIA PHOTOCHEMICAL REACTION” (KEIO UNIVERSITY, priority 2010, published 2014).
# Key:
# [1] = test system: cardiac muscle tissue of the left auricle; test: Acute experiment (open-heart surgery) using swine: verification of immediate conduction block by photodynamic therapy; format: in vivo; conditions: 10 mg/kg intravenously, irradiation 30 minutes after administration, 663 nm, 5.2 W/cm^2, 208 J/cm^2, irradiation line approximately 30 mm
# Method: Left auricular tissue obtained from a swine (body weight: 15.4 kg) was used as a sample. Talaporfin sodium was used as a photosensitive dye, and it was administered intravenously to the swine at 10 mg/kg of the body weight. The duration until light irradiation after the administration of the photosensitive dye was 30 minutes. Light irradiation was carried out using a semiconductor laser with a central wavelength of 663 nm at a power density of 5.2 W/cm^2, an energy density of 208 J/cm^2, and a spot size of 7 mm Φ. The experiment for verification of immediate conduction block using swine was carried out in accordance with the following procedure. 1. A swine was subjected to open-heart surgery under deep anesthesia and the left auricle was exposed. 2. Three bipolar electrodes were positioned in cardiac muscle tissue of the left auricle. One such electrode was used for electrical stimulation (for conductance) and the two other electrodes were used for potential measurement (A and B). 3. Talaporfin sodium was administered intravenously at 10 mg/kg. 4. The irradiation with a band-like laser beam was carried out in a dotted manner between electrodes for potential measurement 30 minutes after administration to perform photodynamic therapy. 5. The potential of an electrode for potential measurement B was measured during laser beam irradiation. 6. […]
# [2] = test system: right ventricular tissue isolated from a Wistar rat; test: Electrical conduction blocking via photodynamic therapy in cardiac muscle tissue extirpated from a rat (ex vivo); conditions: 4.3 μg/ml in Tyrode's perfusion fluid for 2 hours; 670.8 nm laser, 150 mW/cm^2, 3.5 J/cm^2; 5 minutes after photodynamic therapy
# Method: The right ventricular tissue isolated from a Wistar rat was used as a sample. Talaporfin sodium was used as a photosensitive pigment. Talaporfin sodium was dissolved in a perfusion fluid at 4.3 μg/ml. Tyrode's solutions were used as perfusion fluids ([…] 37° C.). A semiconductor laser with a central wavelength of 670.8 nm was used as an excitation light source, and the irradiation was carried out at 150 mW/cm^2 and 3.5 J/cm^2. An experiment of electric conduction blocking in the cardiac muscle was carried out by the following procedures. 1. The heart was extirpated under deep anesthesia and the right ventricular wall was excised. 2. The excised tissue was subjected to perfusion in a Tyrode's solution comprising talaporfin sodium dissolved therein for 2 hours. 3. Three bipolar electrodes were positioned in cardiac muscle tissue. One such electrode was used for electrical stimulation (for conductance) and the two other electrodes were used for potential measurement (A and B). 4. A band-like laser beam was irradiated to the region between electrodes for potential measurement to perform photodynamic therapy. 5. Potentials at the electrodes for potential measurement A and B were measured during laser irradiation.
smiles,measurement,setting,value
"C=Cc1c(C)c2cc3nc(c(CC(=O)N[C@@H](CC(=O)O)C(=O)O)c4[nH]c(cc5nc(cc1[nH]2)C(C)=C5CC)c(C)c4C(=O)O)[C@@H](CCC(=O)O)[C@@H]3C [Talaporfin sodium, talaporfin sodium]",delay of electric conduction at electrode B after light irradiation,[1],approximately 35.5 ms
same,electric conductivity of cardiac muscle tissue at the site irradiated with light after photodynamic therapy,[2],electric conductivity of cardiac muscle tissue was lost
